Laboratory results taken from ChEMBL document CHEMBL5038649, “Chemical Space Expansion of Flavonoids: Induction of Mitotic Inhibition by Replacing Ring B with a 10π-Electron System, Benzo[b]thiophene” (J Nat Prod, 2022).
pIC50: −log10 of the molar value. Active and inactive are the calls of the source. No cut-off for these calls is given here.

Tests used:
MDA-MB-231 [1] = assay: Cell cycle arrest in human MDA-MB-231 cells assessed as accumulation at G2/M phase incubated for 24 hrs by propidium iodide staining based flow cytometric analysis; format: functional
Tubulin (Homo sapiens) = Tubulin (Homo sapiens) (UniProt P68371+Q9H4B7+P0DPH7+P68366+Q13509+Q71U36+P04350+Q3ZCM7+P07437+P68363+Q9BQE3+Q6PEY2+Q13885+Q9BVA1+Q9BUF5); assay: Induction of microtubule depolymerization in human MDA-MB-231 cells assessed as spindle formation incubated for 24 hrs by immunofluorescence staining based confocal microscopic analysis; format: cell-based
A549 = assay: Antiproliferative activity against human A549 cells assessed as reduction in cell viability after 72 hrs by SRB assay; format: functional, cell-based; settings: A549, 72 h
MDA-MB-231 [2] = assay: Antiproliferative activity against human MDA-MB-231 cells assessed as reduction in cell viability after 72 hrs by SRB assay; format: functional, cell-based; settings: MDA-MB-231, 72 h
MCF7 = assay: Antiproliferative activity against human MCF7 cells assessed as reduction in cell viability after 72 hrs by SRB assay; format: functional, cell-based; settings: MCF7, 72 h
KB = assay: Antiproliferative activity against human KB cells assessed as reduction in cell viability after 72 hrs by SRB assay; format: functional, cell-based
[3] = Antiproliferative activity against human KB-VIN cells assessed as reduction in cell viability after 72 hrs by SRB assay; format: functional, cell-based; settings: KBVIN

Activity (Tubulin (Homo sapiens)) | pIC50 (A549) | pIC50 (MDA-MB-231 [2]) | pIC50 (MCF7) | pIC50 (KB) | SMILES | Activity (MDA-MB-231 [1]) | pIC50 [3]
inactive | 6.23 | 6.10 | 6.12 | 6.21 | COc1cc2c(c(OC)c1OC)O/C(=C\c1csc3ccccc13)C2=O | Dose-Dependent Effect | 6.32
 | 5.05 | < 5.00 | < 5.00 | < 5.00 | COc1c(OC(C)C)cc2occ(-c3csc4ccccc34)c(=O)c2c1OC(C)C |  | 5.14
 | < 5.00 | < 5.00 | < 5.00 | < 5.00 | O=C1/C(=C/c2csc3ccccc23)Oc2ccccc21 |  | < 5.00
 | < 5.00 | < 5.00 | < 5.00 | < 5.00 | COc1ccc(O)c(C(=O)/C=C/c2cc3ccccc3s2)c1 |  | < 5.00
 | 5.19 | 5.07 | 5.18 | 5.00 | CC(C)Oc1ccc(O)c(C(=O)/C=C/c2csc3ccccc23)c1 |  | 5.25
 | < 5.00 | < 5.00 | < 5.00 | < 5.00 | O=c1c(-c2ccccc2)coc2ccccc12 [ISOFLAVONE] |  | < 5.00
 | 5.43 | 5.48 | 5.24 | 5.34 | O=C(/C=C/c1csc2ccccc12)c1cc(Cl)cc(Cl)c1O |  | 6.08
 | 5.32 | 5.22 | 5.11 | 5.31 | Cc1ccc(O)c(C(=O)/C=C/c2csc3ccccc23)c1 |  | 5.37
 | < 5.00 | < 5.00 | < 5.00 | < 5.00 | COc1cc2c(=O)c(-c3csc4ccccc34)coc2c(OC)c1OC |  | < 5.00
 | 6.35 | 6.16 | 6.15 | 6.28 | COc1cc(O)c(C(=O)/C=C/c2csc3ccccc23)cc1OC |  | 6.57
 | 5.25 | 5.13 | 5.12 | 5.25 | COc1ccc(C(=O)/C=C/c2csc3ccccc23)c(O)c1 |  | 5.32
 | 5.22 | 5.05 | 5.13 | 5.12 | CC(C)=CCc1cc(C(=O)/C=C/c2csc3ccccc23)c(O)cc1O |  | 5.27
Active | 6.24 | 6.10 | 6.05 | 6.19 | O=C(/C=C/c1csc2ccccc12)c1c(O)ccc2ccccc12 | Dose-Dependent Effect | 6.32
 | < 5.00 | < 5.00 | < 5.00 | < 5.00 | O=c1c(-c2csc3ccccc23)coc2ccccc12 |  | < 5.00
 | 5.38 | 5.37 | 5.24 | 5.32 | O=C(/C=C/c1csc2ccccc12)c1cc(Br)cc(Br)c1O |  | 6.00
 | 6.18 | 6.08 | 5.98 | 6.12 | O=C(/C=C/c1csc2ccccc12)c1cc(Br)ccc1O |  | 6.33
 | 5.27 | 5.17 | 5.12 | 5.24 | CCOc1ccc(O)c(C(=O)/C=C/c2csc3ccccc23)c1 |  | 5.39
 | 5.39 | 5.27 | 5.26 | 5.34 | COc1ccc(OC)c(C(=O)/C=C/c2csc3ccccc23)c1 |  | 5.43
 | < 5.00 | < 5.00 | < 5.00 | < 5.00 | COc1c(OC(C)C)cc2occ(-c3ccccc3)c(=O)c2c1OC(C)C |  | < 5.00
 | < 5.00 | < 5.00 | < 5.00 | < 5.00 | O=C(/C=C/c1csc2ccccc12)c1cccc(Cl)c1 |  | < 5.00

The remaining lines, values behind:

SMILES | Activity (Tubulin (Homo sapiens)) | pIC50 (A549) | pIC50 (MDA-MB-231 [2]) | pIC50 (MCF7) | pIC50 (KB) | Activity (MDA-MB-231 [1]) | pIC50 [3]
COc1ccc(/C=C\c2cc(OC)c(OC)c(OC)c2)cc1O | Active |  |  |  |  | Dose-Dependent Effect | 
COc1cc2occ(-c3csc4ccccc34)c(=O)c2c(OC)c1OC | inactive | 6.19 | 6.09 | 6.13 | 6.09 | Dose-Dependent Effect | 6.29
O=C(/C=C/c1csc2ccccc12)c1ccc2ccccc2c1O |  | 5.14 | < 5.00 | < 5.00 | < 4.40 |  | 5.09
COc1ccc(/C=C/C(=O)c2csc3ccccc23)cc1OC |  | 5.28 | 5.18 | 5.03 | 5.31 |  | 5.33
CCOc1cc2occ(-c3csc4ccccc34)c(=O)c2c(OCC)c1OC |  | 5.59 | 6.00 | 5.51 | 5.38 |  | 6.17
COc1ccc(O)c(C(=O)/C=C/c2csc3ccccc23)c1 |  | 6.24 | 6.12 | 6.12 | 6.19 |  | 6.40
COc1c(OC(C)C)cc2occ(-c3csc4ccccc34)c(=O)c2c1O |  | 5.14 | < 5.00 | < 5.00 | < 5.00 |  | < 5.00
O=C(/C=C/c1ccccc1)c1cccc2ccccc12 |  | 5.30 | 5.22 | 5.01 | 5.21 |  | 5.27
COc1c(OC(C)C)cc2oc(-n3cncn3)c(-c3ccccc3)c(=O)c2c1OC(C)C |  | < 5.00 | < 5.00 | < 5.00 | < 5.00 |  | < 5.00
O=C(/C=C/c1c[nH]c2ccccc12)c1cc(Cl)ccc1O |  | 6.12 | 6.00 | 5.24 | 6.04 |  | 6.10
O=C(/C=C/c1csc2ccccc12)c1ccccc1O |  | 5.28 | 5.28 | 5.18 | 5.21 |  | 5.27
COc1c(OC(C)C)cc2ccc(-c3cc(=O)c4ccccc4o3)cc2c1OC(C)C |  | < 5.00 | < 5.00 | < 5.00 | < 5.00 |  | 5.09
COc1c(O)cc2occ(-c3ccccc3)c(=O)c2c1O |  | < 5.00 | < 5.00 | < 5.00 | < 5.00 |  | < 5.00
CCOc1c(OC)cc2occ(-c3csc4ccccc34)c(=O)c2c1OC |  | 5.32 | 5.28 | 5.40 | 5.40 |  | 6.08
